Structures can show the parent of a compound that is named as a salt.
Assays:
FXR = molecular target: T1, FXR (Homo sapiens, UniProt Q96RI1); assay: FXR mediated transactivation (luciferase reporter) in transfected HepG2 cells; format: cell-based; details: each compound at 10 microM, transactivation activity of CDCA on FXR = 100%
T1 construct: expressed in transfected cells; host or cells: HepG2
T1 sequence (Q96RI1 1-486): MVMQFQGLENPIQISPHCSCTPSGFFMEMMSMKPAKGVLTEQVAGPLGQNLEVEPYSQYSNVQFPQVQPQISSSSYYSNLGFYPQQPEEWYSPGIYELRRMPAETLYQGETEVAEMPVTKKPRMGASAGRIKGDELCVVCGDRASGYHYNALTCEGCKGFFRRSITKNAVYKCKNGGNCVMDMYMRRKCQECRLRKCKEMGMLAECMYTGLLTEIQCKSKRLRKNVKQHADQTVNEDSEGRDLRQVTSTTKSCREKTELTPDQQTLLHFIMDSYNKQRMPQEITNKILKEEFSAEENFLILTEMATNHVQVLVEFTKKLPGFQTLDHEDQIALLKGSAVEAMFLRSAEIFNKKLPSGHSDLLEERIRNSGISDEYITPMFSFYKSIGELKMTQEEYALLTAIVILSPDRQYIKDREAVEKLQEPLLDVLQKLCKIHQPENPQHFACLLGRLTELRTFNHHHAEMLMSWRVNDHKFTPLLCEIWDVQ
T1 sequence (P19793 1-462 partner): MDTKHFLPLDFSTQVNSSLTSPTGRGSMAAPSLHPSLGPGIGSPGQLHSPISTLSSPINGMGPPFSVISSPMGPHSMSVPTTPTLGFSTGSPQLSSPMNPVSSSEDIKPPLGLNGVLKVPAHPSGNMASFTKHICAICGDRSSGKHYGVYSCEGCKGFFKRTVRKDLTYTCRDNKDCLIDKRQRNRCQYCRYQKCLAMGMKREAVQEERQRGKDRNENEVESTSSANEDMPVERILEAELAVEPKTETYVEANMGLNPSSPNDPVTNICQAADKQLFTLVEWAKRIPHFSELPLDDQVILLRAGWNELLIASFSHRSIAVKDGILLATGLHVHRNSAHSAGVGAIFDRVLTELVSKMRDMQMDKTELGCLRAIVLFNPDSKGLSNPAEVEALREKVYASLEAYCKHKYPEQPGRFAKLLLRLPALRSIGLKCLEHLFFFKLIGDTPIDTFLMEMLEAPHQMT
Procedure: (§1) Each compound was tested at the concentration of 10 microM and transactivation activity of CDCA on FXR and TLCA on CRE (i.e. TGR5/GPBAR1) was considered equal to 100%.
(§2) Biological Activities. Activity of selected compounds was tested in vitro using a whole cell model transfected with a reporter genes to establish selectivity of compounds shown in table 1 toward FXR and TGR5/GPBAR1 in comparison with chenodeoxycholic acid (CDCA) and TLCA. CDCA is a primary bile acid that functions as an endogenous ligand for FXR, while TLCA is a physiological ligand for TGR5/GPBAR1. In this assay, HepG2 cells (a liver-derived cell line) were cultured at 37° C. in minimum essential medium with Earl's salts containing 10% fetal bovine serum (FBS), 1% L-glutamine, and 1% penicillin/streptomycin. […] The transfection experiments were performed using Fugene HD according to manufactured specifications. Cells were plated in a 24-well plate at 5×10^4 cells/well. For FXR mediated transactivation, HepG2 cells were transfected with 100 ng of pSG5-FXR, 100 ng of pSG5-RXR, 100 ng of pGL4.70 a vector encoding the human Renilla gene and 250 ng of the reporter vector p(hsp27)-TK-LUC containing the FXR response element IR1 cloned from the promoter of heat shock protein 27 (hsp27).
(§3) At 24 h post-transfection, cells were stimulated for 18 h with 10 μM TLCA as a control agent or putative GPBAR1 agonists as the same concentration. After treatments, cells were lysed in 100 μL of lysis buffer (25 mM Tris-phosphate, pH 7.8; 2 mM DTT; 10% glycerol; 1% Triton X-100), and 20 μL of cellular lysate was assayed for luciferase activity using the luciferase assay system. Luminescence was measured using Glomax 20/20 luminometer. Luciferase activities were normalized against Renilla activities. Antagonism against FXR of GPBAR1/TGR5 was measured as percent of activity in transactivation assay suing activity of TLCA as example of agonism.

human GPBAR1 = molecular target: T2, human GPBAR1 (Homo sapiens, UniProt Q8TDU6); assay: GPBAR1 mediated transactivation (CRE luciferase reporter) in transfected HEK-293T cells; format: cell-based; details: each compound at 10 microM, transactivation activity of TLCA on CRE = 100%
T2 construct: expressed in transfected cells; host or cells: HEK-293T
T2 sequence (Q8TDU6 1-330): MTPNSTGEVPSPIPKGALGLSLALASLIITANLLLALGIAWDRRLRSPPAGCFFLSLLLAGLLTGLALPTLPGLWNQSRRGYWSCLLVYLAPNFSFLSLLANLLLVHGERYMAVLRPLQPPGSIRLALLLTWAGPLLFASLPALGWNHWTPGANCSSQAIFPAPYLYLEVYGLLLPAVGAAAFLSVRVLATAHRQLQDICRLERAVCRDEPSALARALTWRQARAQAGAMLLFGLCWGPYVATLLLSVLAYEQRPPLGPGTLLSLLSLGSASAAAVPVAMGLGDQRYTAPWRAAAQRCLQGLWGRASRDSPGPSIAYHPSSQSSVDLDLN
Procedure: as §1, §2, §3

[1] = tested on: sea lamprey (Petromyzon marinus); details: cited from earlier work
[2] = not given; remark: listed apart in the source
[3] = molecular target: T3, intestinal bile acid carrier (Homo sapiens, UniProt Q12908); details: CaCo-2 cells; cited from earlier work
T3 construct: host or cells: CaCo-2
T3 sequence (Q12908 1-348): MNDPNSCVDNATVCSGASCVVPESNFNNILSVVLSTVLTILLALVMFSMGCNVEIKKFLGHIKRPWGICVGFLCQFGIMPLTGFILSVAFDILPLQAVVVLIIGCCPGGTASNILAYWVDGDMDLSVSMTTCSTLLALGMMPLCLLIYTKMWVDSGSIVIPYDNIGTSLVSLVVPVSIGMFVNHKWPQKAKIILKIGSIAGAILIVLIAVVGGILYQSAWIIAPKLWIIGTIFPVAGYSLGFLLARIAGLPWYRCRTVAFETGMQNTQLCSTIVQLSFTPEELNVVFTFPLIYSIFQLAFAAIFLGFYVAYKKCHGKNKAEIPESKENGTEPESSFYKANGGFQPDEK

[4] = patients suffering from primary biliary cirrhosis (PBC), clinical trials; cited from earlier work
[5] = ANIT or 17α-ethynylestradiol cholestasis models

SMILES	FXR (% of activity in comparison to 10 μM CDCA) (FXR) [%]	GPBAR1 (% of activity in comparison to 10 μM TLCA) (human GPBAR1) [%]	further results
C[C@H](CCCOS(=O)(=O)O)[C@H]1CCC2C3CC[C@@H]4CCCC[C@]4(C)C3CC[C@@]21C (stereo partly shown) [BAR407]	177.1 ± 3.5	37.3 ± 2.5	olfactory response [1]: did not to elicit an olfactory response
CC[C@H]1[C@@H](O)C2C3CC[C@H]([C@H](C)CCO)[C@@]3(C)CCC2[C@@]2(C)CC[C@@H](O)C[C@@H]12 (stereo partly drawn) [BAR502, 6α-ethyl-3α, 7α-dihydroxy-24-nor-5β-cholan-23-ol]	263.0 ± 32.0	74.5 ± 6.4	liver expression of canonical FXR target genes including OSTα, BSEP, SHP and MDR1 [5]: robustly modulates; serum alkaline phosphatase levels [5]: attenuates; survival [5]: increases survival; itching (pruritus) (mouse, in vivo): does not induce itching; bile acid pool ([2]; 17α-ethynylestradiol model): reshapes bile acid pool; cholestasis ([2]; 17α-ethynylestradiol model): attenuates cholestasis; itching ([2]; mouse, in vivo): without inducing itching
CC[C@@H]1[C@@H](O)[C@@H]2[C@H](CC[C@]3(C)[C@@H]([C@H](C)CCCO)CC[C@@H]23)[C@@]2(C)CC[C@H](O)C[C@@H]12 [BAR709, 6β-ethyl-3β,7α-dihydroxy-5β-cholan-24-ol]	33.7 ± 2.0	54.2 ± 0.3	–
CC[C@H]1[C@@H](O)C2C3CC[C@H]([C@H](C)CCCCC(=O)O)[C@@]3(C)CCC2[C@@]2(C)CC[C@@H](O)C[C@@H]12 (stereo partly drawn) [BAR802, 6α-ethyl-3α, 7α-dihydroxy-25, 26-bishomo-5β-cholan-26-oic acid]	11.5 ± 8.5	56 ± 5.0	–
CC[C@H]1[C@@H](O)C2C3CC[C@H]([C@H](C)CCCCCO)[C@@]3(C)CCC2[C@@]2(C)CC[C@@H](O)C[C@@H]12 (stereo partly drawn) [BAR803, 6α-ethyl-3α, 7α-dihydroxy-25, 26-bishomo-5β-cholan-26-ol]	122.5 ± 5.5	80.5 ± 5.0	–
CC[C@H]1[C@@H](O)C2C3CC[C@H]([C@H](C)CCCCCOS(=O)(=O)O)[C@@]3(C)CCC2[C@@]2(C)CC[C@@H](O)C[C@@H]12 (stereo partly drawn) [BAR804, 6α-ethyl-3α, 7α-dihydroxy-25, 26-bishomo-5β-cholan-26-yl-26-sodium sulfate]	196.5 ± 6.5	52.5 ± 3.5	–
C[C@H](CC(=O)O)[C@H]1CCC2C3CC[C@@H]4CCCC[C@]4(C)C3CC[C@@]21C (stereo partly shown) [BARn406]	27.0 ± 1.5	4.8 ± 1.8	ability to inhibit taurocholic acid transport [3]: undetectable
CC[C@@H]1[C@H](O)C2C3CC[C@H]([C@H](C)CCO)[C@@]3(C)CCC2[C@@]2(C)CC[C@@H](O)C[C@@H]12 (stereo partly drawn) [BARn501, 6β-ethyl-3α, 7β-dihydroxy-24-nor-5β-cholan-23-ol]	8.5 ± 1.4	83.1 ± 7.4	–
CC[C@H]1[C@@H](O)C2C3CC[C@H]([C@H](C)CCO)[C@@]3(C)CCC2[C@@]2(C)CCCC[C@@H]12 (stereo partly drawn) [BARn701, 6α-ethyl-7α-hydroxy-24-nor-5β-cholan-23-ol]	90 ± 22	55 ± 1.0	–
CC[C@H]1[C@@H](O)C2C3CC[C@H]([C@H](C)CC(=O)O)[C@@]3(C)CCC2[C@@]2(C)CCCC[C@@H]12 (stereo partly drawn) [BARn704, 6α-ethyl-7α-hydroxy-24-nor-5β-cholan-23-oic acid]	202.5 ± 1.5	64 ± 2.0	–
CC[C@H]1[C@@H](O)C2C3CC[C@H]([C@H](C)CCO)[C@@]3(C)CCC2[C@@]2(C)CC[C@H](O)C[C@@H]12 (stereo partly drawn) [BARn706, 6α-ethyl-3β,7α-dihydroxy-24-nor-5β-cholan-23-ol]	197.5 ± 4.5	69.5 ± 6.5	–
CC[C@H]1[C@@H](O)C2C3CC[C@H]([C@H](C)CC(=O)O)[C@@]3(C)CCC2[C@@]2(C)CC[C@H](O)C[C@@H]12 (stereo partly drawn) [BARn710, 6α-ethyl-3β,7α-dihydroxy-24-nor-5β-cholan-23-oic acid]	142 ± 1.0	75 ± 8.0	–
CC[C@H]1[C@@H](O)[C@@H]2[C@H](CC[C@]3(C)[C@@H]([C@H](C)CCC(=O)O)CC[C@@H]23)[C@@]2(C)CC[C@@H](O)C[C@@H]12 [obeticholic acid]	–	–	patients with severe itching [4]: approximately 80%

From patent US11117926B2, “Cholane derivatives for use in the treatment and/or prevention of FXR and TGR5/GPBAR1 mediated diseases” (BAR PHARMACEUTICALS S.R.L., priority 2014, dated 2021)
